Here are results for 2 compounds from patent US9254273B2, “Compositions and methods for treating Alzheimer's disease and related disorders and promoting a healthy nervous system” (Icahn School of Medicine at Mount Sinai, priority 2004, dated 2016).

The target of one data set is T1, β-secretase (Homo sapiens, UniProt P56817).
T1 construct: endogenous in cells; host or cells: H4-APP751 human glioma cells (homogenate)
The data set can be described thus: Cell-based β-secretase activity assay (fluorometric kit) in pinitol-treated H4 cells. The conditions noted are these: cultured H4 cells, increasing concentrations of pinitol, 24 and 48 hours. As for the experimental part: (§1) In this study, cultured human glioma H4-cells with constitutive APP751 expression were treated with increasing concentrations of pinitol, and then cellular ∀- and ∃-secretase activity as well as A∃ peptide contents in the conditioned media were assessed in response to pinitol treatment over time. Growth and maintenance of H4-APP751 cells were as described in Qin et al. (J. Biol. Chem. 2002; 278:50970-50977). Confluent cell cultures were treated with increasing concentration of pinitol. At 24 and 48 hours after pinitol treatment, cells were harvested for secretase activity assays and conditioned media were collected for measurement of A∃ peptide contents. The ∀-secretase (FIG. 7A) and ∃-secretase (FIG. 7B) activities in pinitol-treated cells were measured using commercially available kits (R&D Systems). Harvested cells were homogenized in supplied buffers and homogenate was added to a secretase-specific APP peptide conjugated to the reporter molecules EDANS and DABCYL. […] Cleavage of the peptide by the secretase physically separates the EDANS and DABCYL, allowing the release of a fluorescent signal. The level of ∀-secretase (FIG. 7A) or ∃-secretase (FIG. 7B) enzymatic activity is proportional to the fluorometric reaction in the homogenate. […] A∃ peptides were measured by ELISA as described above. […]

The test system of data set [1] is insulin receptor signal transduction. The data set can be described thus: Insulin receptor signal transduction in the brain of Tg2576 mice. The class given is in vivo, mouse.
Data set [2] deals with γ-secretase. The data set can be described thus: In vitro γ-secretase assay (in vitro model of amyloidosis): CTF-γ from membrane-bound APP, H4-APPswe cells. The class given is biochemical, human. As for the experimental part:
(§2) For assessment of γ-secretase activity, cell monolayers were rinsed twice with ice-cold PBS on ice, scraped from tissue culture dishes and centrifuged (1,500 rpm, 10 min, 4° C.). Cell pellets were then resuspended (0.5 ml/10 cm dish) in homogenization buffer (10 mM MOPS pH 7.0, 10 mM potassium chloride, 1× complete protease inhibitor (PI) (Roche Molecular Biochemicals, Germany) and homogenized by passing cell suspensions through a 23-gauge needle 10 times. Homogenates were then centrifuged (2,500 rpm, 15 min at 4° C.) to remove unbroken cells and nuclei. The supernatant (membrane and post-nuclear supernatant) was then centrifuged (14,000 rpm, 20 min, 4° C.) and rinsed in homogenization buffer. Membranes were then resuspended (0.5 ml/10 cm dish) in assay buffer (150 mM sodium citrate pH 6.4; 1×PI) and incubated at (2 hr) at 37° C. in 25 μl of incubation buffer per assay sample to allow for generation of the CTF-γ cleavage product; negative control samples were maintained on ice. CTF-γ cleavage products (as well as CTF-α and CTF-β) were resolved electrophoretically in 10-20% Tris-Tricine gels (Bio Rad Laboratories, CA), and identified using an anti APP polyclonal C8 antibody. Immunoreactivities were visualized autoradiographically using a chemiluminescence detection kit (SuperSignal; Pierce Biotechnology, Rockford, Ill.). […]

Data set [3] has as its system γ-secretase. The data set can be described thus: Aβ peptide content in conditioned media by ELISA (γ-secretase readout) in pinitol-treated H4 cells. The class given is cell-based, human. The procedure: For quantitative assessment of A∃ peptides (Xiang et al. Gene Expr. 2002, 10:271-278), frozen pulverized brain tissues were homogenized in 5.0 M guanidine buffer, diluted (1:10) in phosphate-buffered saline containing 0.05% (v/v) Tween-20 and 1 mM Pefabloc protease inhibitors (Roche Biochemicals, Indianapolis, Ind.) and centrifuged for 20 min at 4° C. Total Aβ1-40 or Aβ1-42 was measured by sandwich ELISA (BioSource, Camarillo, Calif.) according to the manufacturer's instructions. Serum specimens were assessed directly using the same ELISA according to the manufacturer's instructions.
In this study, cultured human glioma H4-cells with constitutive APP751 expression were treated with increasing concentrations of pinitol, and then cellular ∀- and ∃-secretase activity as well as A∃ peptide contents in the conditioned media were assessed in response to pinitol treatment over time. Growth and maintenance of H4-APP751 cells were as described in Qin et al. (J. Biol. Chem. 2002; 278:50970-50977). Confluent cell cultures were treated with increasing concentration of pinitol. At 24 and 48 hours after pinitol treatment, cells were harvested for secretase activity assays and conditioned media were collected for measurement of A∃ peptide contents. The ∀-secretase (FIG. 7A) and ∃-secretase (FIG. 7B) activities in pinitol-treated cells were measured using commercially available kits (R&D Systems). Harvested cells were homogenized in supplied buffers and homogenate was added to a secretase-specific APP peptide conjugated to the reporter molecules EDANS and DABCYL. […] Cleavage of the peptide by the secretase physically separates the EDANS and DABCYL, allowing the release of a fluorescent signal. The level of ∀-secretase (FIG. 7A) or ∃-secretase (FIG. 7B) enzymatic activity is proportional to the fluorometric reaction in the homogenate. […] A∃ peptides were measured by ELISA as described above. In FIG. 7, each value represents Mean±SEM; n=4 cultures per assay; * P<0.05 vs. control (no pinitol treatment) group (2-tailed Student's t test).

In data set [4] the test system is γ-secretase. The data set can be described thus: In vitro γ-secretase assay in extracts obtained from CHO-APPswe cells. The class given is biochemical. Conditions: data not shown. The procedure: as §2
For data set [5], the system named is NOTCH. The data set can be described thus: γ-secretase-mediated cleavage of NOTCH in H4-APPswe cells. It is filed as cell-based, human. Conditions: FIG. 8B. The text has this:
The selectivity of D-pinitol action was further addressed by examining its effect on cleavage of the signaling molecule NOTCH. The “gamma-secretase” complex, consisting of presenilins (PS), nicastrin (NCT), APH-1 and PEN-2, catalyzes the intramembranous proteolysis of truncated Notch derivatives to generate NICD, respectively.

Data set [6] relates to Tg2576 mice. The data set can be described thus: Cognitive function in Tg2576 mice. It is filed as in vivo, mouse.
In the next data set the test system is α-secretase. Kind of data set: Cell-based α-secretase activity assay (fluorometric kit) in pinitol-treated H4 cells. Also on record: species or system human. The conditions noted are these: cultured H4 cells, increasing concentrations of pinitol, 24 and 48 hours. As for the experimental part:
as §1

For data set [7], the system named is NOTCH. Kind of data set: Cleavage of NOTCH in the neocortex of Tg2576 transgenic mice. It is filed as in vivo, mouse. Conditions: compared to insulin-resistant and control Tg2576 mice, data not shown.
In data set [8] the test system is Tg2576 mice. The data set can be described thus: Aβ peptide content (ELISA) in the brain of Tg2576 mice on high-fat diet plus pinitol. Conditions: 12-month old female Tg2576 mice, high-fat diet plus pinitol in drinking water (600 mg/liter), from 4 months of age. The class given is in vivo, mouse. The text has this:
This study assessed A∃ peptide contents in the brain and in the periphery (serum) of 12-month old female Tg2576 mice in response to chronic treatment, initiating at 4 month of age, with a high-fat (HF) diet or HF diet plus pinitol (N=3-4 per group). Gender-age-matched Tg2576 mice maintained on standard rodent laboratory diet (LF diet) served as controls. High-fat diet and standard laboratory diet containing equal % of cholesterol per g/diet were purchased from Research Diet, Inc. (New Brunswick, N.J.) (Ho et al, FASEB J 2004; 18:902-204). Pinitol (Humanetics Corp.) was provided by incorporation into drinking water (600 mg pinitol/liter water), which is available ad libitum. […] For quantitative assessment of A∃ peptides (Xiang et al. Gene Expr. 2002, 10:271-278), frozen pulverized brain tissues were homogenized in 5.0 M guanidine buffer, diluted (1:10) in phosphate-buffered saline containing 0.05% (v/v) Tween-20 and 1 mM Pefabloc protease inhibitors (Roche Biochemicals, Indianapolis, Ind.) and centrifuged for 20 min at 4° C. Total Aβ1-40 or Aβ1-42 was measured by sandwich ELISA (BioSource, Camarillo, Calif.) according to the manufacturer's instructions. Serum specimens were assessed directly using the same ELISA according to the manufacturer's instructions.

The conditions of data set [9]: insulin-resistant and hyperinsulinemic monkeys; cited from earlier work.
For data set [10] the following is noted: history of use, animal and human clinical scientific studies; cited from earlier work.
The conditions of data set [11]: cited from earlier work.
Data set [12] is described as follows: LDH assay of cell toxicity. It is filed as cell-based. The conditions noted are these: all concentrations tested, 50-250 μM, not shown.
A further data set concerns GSK-3. Kind of data set: GSK-3 activity in the brain of Tg2576 mice. The class given is in vivo, mouse. The conditions noted are these: Tg2576 mice treated with D-pinitol.
Where [13] appears, read: 80 mg/kg/day in drinking water from six months of age, 12-month old Tg2576 mice.
[14] abbreviates: conditioned culture media, ELISA, increasing concentrations of pinitol.

“Also recorded” adds a separate entry of the source. Like-named read-outs stand apart in the source and are kept apart here.

T1 sequence (P56817 46-501): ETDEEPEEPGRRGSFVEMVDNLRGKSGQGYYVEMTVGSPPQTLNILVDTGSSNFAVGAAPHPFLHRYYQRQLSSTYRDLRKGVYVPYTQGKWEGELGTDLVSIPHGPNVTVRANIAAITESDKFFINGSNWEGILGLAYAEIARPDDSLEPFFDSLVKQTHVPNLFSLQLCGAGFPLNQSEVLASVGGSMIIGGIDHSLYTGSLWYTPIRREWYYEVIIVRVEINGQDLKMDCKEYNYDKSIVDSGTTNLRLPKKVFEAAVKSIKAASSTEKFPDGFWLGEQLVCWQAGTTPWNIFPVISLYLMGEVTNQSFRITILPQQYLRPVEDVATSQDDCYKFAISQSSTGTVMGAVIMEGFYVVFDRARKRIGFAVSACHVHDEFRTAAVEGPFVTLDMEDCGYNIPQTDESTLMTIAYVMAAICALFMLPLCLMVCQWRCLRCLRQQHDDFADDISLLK

In the case of `CO[C@H]1[C@H](O)[C@@H](O)[C@@H](O)[C@H](O)[C@@H]1O` [D-pinitol], the β-secretase activity entry at β-secretase is “no effect; also recorded: does not influence”. In [1] (setting [13]), the PI3K-p85α result is “increased”, the S473-AKT result is reported as “increased” and the “total IRβ” value is on record as “not”. Also, the “Y1162/1163-phosphorylated IRβ” value in data set [1] (80 mg/kg/day in drinking water from six months of age, 12-month old Tg2576 mice, vs insulin resistant and control mice) is recorded as “increased”. In addition, the “insulin receptor signal transduction in the brain” value in data set [1] (Tg2576 mice treated with D-pinitol) is “restoration”. Moreover, the “formation of the ~7 kDa CTF-γ APP fragment” value with γ-secretase [2] (H4-APPswe cells, membrane-bound APP) is on record as “blocked; also recorded: selective reduction”. In the data set on γ-secretase [3] (setting [14]), the Aβ1-40 production result is recorded as “dose-dependent inhibition” and the Aβ1-42 production result is given as “dose-dependent inhibition”. Moreover, the γ-secretase activity result in the data set on γ-secretase [3] (cultured H4 cells, read out as Aβ1-40 and Aβ1-42 in conditioned media) was “robust inhibitory effect”. Further, the “Aβ1-40 peptide in the same tissue culture” value with γ-secretase [4] (CHO-APPswe cells) is reported as “corresponding reduction”. Further, the “formation of the ~7 kDa CTF-γ APP” value with γ-secretase [4] (extracts from CHO-APPswe cells) is “blocked in a dose dependent fashion”. Besides, the “cleavage of NOTCH” value in the data set with NOTCH [5] was “no inhibitory effect”. Further, the cognitive impairment result with Tg2576 mice [6] (NIDDM-like insulin resistant Tg2576 mice) is “beneficially influences”. Besides, in the data set with Tg2576 mice [6] (Tg2576 mice, 80 mg/kg body weight per day in drinking water, preliminary studies), the cognitive functions entry is given as “promotes”. Moreover, the α-secretase activity result in the data set with α-secretase was “no effect; also recorded: does not influence”. For the same compound, in the data set on NOTCH [7], the “cleavage of NOTCH in the neocortex” value was “no inhibitory effect”. Also, the “β-amyloidogenesis in the brain” value with Tg2576 mice [8] is “amelioration”. Further, the “β-amyloidogenesis in the brain” value with Tg2576 mice [8] (listed as pinitol) was “reduced”. The “rate of glucose disappearance” value in [9] is reported as “increased”. Also, the “toxicity and safety in man” value in [10] was “non-toxic and safe”. In addition, the blood glucose concentration entry in data set [11] (normal rats given glucose) is recorded as “lower”. Also, the blood glucose concentration result in [11] (streptozotocin-induced diabetic rats) is “lower”. Moreover, in data set [12], the “cell toxicity (LDH assay)” value is listed as “no detectable cell toxicity”. For the same compound, the “GSK-3 activity in the brain” value in the data set with GSK-3 is given as “restoration”.

For the compound `OC1C(O)C(O)C(O)C(O)C1O` (stereo not drawn) [d-chiro-inositol, reference compound], the “β-amyloid formation in the in vitro system” value with γ-secretase [2] (in vitro amyloidosis system) is on record as “no inhibitory effect”.
